Assay results from publication PMC10892429, “Design, Synthesis, and Antitumor Evaluation of an Opioid Growth Factor Bioconjugate Targeting Pancreatic Ductal Adenocarcinoma” (Pharmaceutics, 2024).

Legend:
MIA PaCa-2 cells = test: Cell senescence (flow cytometry and optical microscopy), MIA PaCa-2; format: cell-based, human; conditions: MIA PaCa-2, 72 h; OGF-Gem increasing concentrations (3.125–100 nM), OGF 100 nM, Gem 100 nM
Method: In a 6-well plate, 1.7 × 10^5 MIA PaCa-2 and AsPC-1 cells were seeded per well. […] After incubation, the floating and attached cells were collected using a 1% BSA solution and fixed with 2% paraformaldehyde in PBS for 10 min at room temperature. The cells were washed with 1% BSA solution and incubated with the Senescence Detection Kit for 1.5 h at 37 °C without CO2, protected from light. Next, cell senescence was measured via flow cytometry (λex 490 nm; λem 514 nm). Ten thousand events were measured per sample. The data were expressed as a percentage of untreated cells (set to 100%), which were the control.
In a 12-well plate, 10^5 PaCa-2 and AsPC-1 cells were seeded per well. […] The medium was removed from each well and washed with a PBS (pH 7.2) buffer. The cells were incubated with fixative solution (0.2% glutaraldehyde, 2% paraformaldehyde, and a PBS buffer) for 5 min at room temperature. The cells were washed with a PBS (pH 6.0) buffer. Next, the cells were incubated with a staining solution (1 mg/mL X-Gal/DMF, 5 mM K3Fe(CN)6, 5 mM K4Fe(CN)6, 2 mM MgCl2, 150 mM NaCl, and 40 mM citric acid/buffer Na2HPO4) for 16 h at 37 °C, without CO2. After incubation, the cells were observed using an optical microscope (magnification 20x).

[1] = test system: HDFa human primary dermal fibroblasts; test: MTT viability assay, HDFa
Method: (§1) The MIA PaCa-2 and AsPC-1 pancreatic cancer cell lines were obtained from the American Type Culture Collection (ATCC; Manassas, VA, USA). MIA PaCa-2, a human pancreatic cancer cell line, was isolated from the pancreatic duct (ATCC, CRL-1420) and cultured in Dulbecco’s Modified Eagle’s Medium (DMEM), supplemented with 10% FBS, 2.5% horse serum, and 1% penicillin/streptomycin (P/S). AsPC-1, a human metastatic pancreatic tumor cell line (ATCC, CRL-1682), was cultured in Roswell Park Memorial Institute 1640 Medium, supplemented with 10% FBS and 1% P/S. HDFa, a human primary dermal fibroblast was obtained from the American Type Culture Collection (ATCC; Manassas, VA, USA). The HDFa was cultured in DMEM and supplemented with 10% FBS and 1% P/S. HEK-293 immortalized human embryonic kidney was obtained courtesy of Professor Ewa Augustin from the Gdansk University of Technology. The HEK-293 was cultured in DMEM, and supplemented with 10% FBS and 1% P/S. Cells were cultured at 37 °C in a humidified atmosphere with 5% CO2. The cells were maintained in a 75 cm^2 tissue culture flask. The medium was replaced every two days. […]
(§2) In a 96-well plate, 7 × 10^3 MIA PaCa-2 and AsPC-1 cells and 3 × 10^3 HEK-293 and 10^4 HDFa cells were seeded per well. […] Cell viability was assessed using the MTT assay. […]

[2] = test system: AsPC-1-induced platelet aggregation (washed platelets); test: Tumor cell-induced platelet aggregation (TCIPA), light aggregometry and TEM; format: cell-based, human; conditions: 50, 100 μM (any tested concentration), 10 min pre-incubation with washed platelets, AsPC-1 2 × 10^5/mL
Method: The MIA PaCa-2 and AsPC-1 cell cultures were washed and detached with 7 mM EDTA buffer. Next, the buffer was aspirated, and cells were centrifuged for 5 min at 1200 rpm and resuspended in Tyrod buffer. For TCIPA determination, MIA PaCa-2 cells were prepared at different concentrations: 10^5, 2 × 10^5, 5 × 10^5, 10^6 cells/mL; and AsPC-1 cells at concentrations of 5 × 10^4, 10^5, 2 × 10^5 cells/mL [31, 32, 33].
Samples collected after the TCIPA determination using the light aggregometer were fixed in 2.5% glutaraldehyde. The samples were then stained with 1% OsO4, gradually dehydrated with ethanol solution (30–100%), and embedded in EPON solution. Slides were prepared using a Leica UC7 ultramicrotome and stained with Uranyless and Reynolds lead citrate. Preparations were analyzed using a Tecnai G2 Spirit BioTWIN TEM [31].

[3] = test system: HEK-293 human embryonic kidney cells; test: MTT viability assay, HEK-293
Method: as §1, §2

washed platelets [4] = test: Platelet aggregation by compounds alone, light aggregometry; conditions: tested concentration
[5] = Stability in DMEM supplemented with 10% FBS; format: in vitro ADME; conditions: DMEM + 10% FBS
Method: The OGF-Gem conjugate and OGF alone were incubated in a medium (DMEM) supplemented with 10% FBS at a temperature of 37 °C. The initial concentrations of the peptide and conjugate solutions were both 0.5 mM. Samples of 60 μL were taken immediately after the start of incubation, 30 min, 90 min, 180 min, and 23 h and mixed with 60 μL of acetonitrile to separate the proteins. The formed precipitate was removed via centrifugation for 15 min at 13,000 rpm. The supernatant was analyzed via RP-HPLC [(Shimadzu Prominence, Duisburg, Germany) linear gradient 10–90% phase B, 20 min., column Kinetex 5 μm XB-C18 100Å 150 × 4.6 mm] and MALDI-MS (Autoflex maX MALDI-TOF spectrometer, Bruker Daltonics, Bremen, Germany) using a 2,5-dihydroxybenzoic acid matrix (DHB). A stability analysis was performed according to a protocol previously described by us.

washed platelets [6] = test: LDH release assay on washed platelets; format: cell-based, human; conditions: 50 and 100 μM, 15 min at 37 °C, fluorescence
Method: The isolated WP (prepared as described in Section 2.12) were transferred to a 96-well plate for fluorescence measurements. Next, the OGF-Gm conjugate and the OGF at 50 and 100 μM concentrations were added. The control sample consisted of platelets suspended in Tyrod buffer. The positive control was WP treated with lysis buffer (0.1% Triton X-100) and the lysis buffered-WPs were set to 100%. Platelets with tested compounds were incubated for 15 min at 37 °C. Then, 100 μL of the LDH assay was added to each well and incubated for another 10 min, protected from light. The reaction was stopped with a Stop Solution buffer. Fluorescence intensity was measured with a plate reader (λex 560 nm; λem 590 nm). The results were expressed as the percentage of the total LDH release.

[7] = test system: AsPC-1 metastatic pancreatic cancer cells; test: MTT cytotoxicity assay, AsPC-1; format: cell-based, human; conditions: AsPC-1, 72 h
Method: The medium was replaced every two days.
Cell viability was assessed using the MTT assay.

[8] = all tested concentrations (1.56–100 nM), 3 days

With `Nc1ccn([C@@H]2O[C@H](CO)[C@@H](O)C2(F)F)c(=O)n1` [Gem, gemcitabine] the “induction of cell senescence” value (MIA PaCa-2 cells) was “induced”, the HDFa cell viability ([1]; 100 nM, 72 h, % of control) was 35% and the “inhibition of TCIPA” value [2] was “did not inhibit”. For the same compound, the “reduction in HEK-293 cell viability” value ([3]; 100 nM, 72 h, compared to the 100 nM OGF-Gem derivative) was 80% and the “effect on platelet aggregation (compound alone)” value (from here on “effect on platelet aggregation”) (washed platelets [4]) was “do not affect platelet aggregation”.

For `CSCC[C@H](NC(=O)[C@H](Cc1ccccc1)NC(=O)CNC(=O)CNC(=O)[C@@H](N)Cc1ccc(O)cc1)C(=O)O` [OGF, [Met^5]-enkephalin, reference compound], the “concentration after 23 h compared to the initial state” value ([5]; 37 °C, 0.5 mM, 23 h, RP-HPLC) was “lower”, the “presence of intact compound after 23 h (HPLC)” value ([5]; 37 °C, 0.5 mM, 23 h, RP-HPLC) was “still present” and the “LDH release from platelets” value (washed platelets [6]) was “did not result in significant releases of LDH”. For the same compound, the “effect on platelet aggregation” value (washed platelets [4]) was “do not affect platelet aggregation”.

With `CSCC[C@H](NC(=O)[C@H](Cc1ccccc1)NC(=O)CNC(=O)CNC(=O)[C@H](Cc1ccc(O)cc1)NC(=O)CCC(=O)OC[C@H]1O[C@@H](n2ccc(N)nc2=O)C(F)(F)[C@@H]1O)C(=O)O` [OGF-Gem] the “cytotoxic effect compared to the commonly used chemotherapeutic agent (Gem)” value [7] was “more pronounced cytotoxic effect”, the “presence of intact compound after 23 h (MS)” value ([5]; 37 °C, 0.5 mM, 23 h, MALDI-MS) was “not confirmed” and the “presence of intact compound after 23 h (HPLC)” value ([5]; 37 °C, 0.5 mM, 23 h, RP-HPLC) was “confirmed”. For the same compound, the “presence of intact compound after 3 days (HPLC)” value ([5]; 3 days at room temperature, RP-HPLC) was “confirmed”, the “release of parent drug during incubation” value ([5]; HPLC and MS) was “gradual release of free Gem” and the remaining at 23 h, 0.5 mM ([5]; DMEM supplemented with 10% FBS, 37 °C, 0.5 mM, 23 h, RP-HPLC, read-out: HPLC peak area of intact conjugate after 23 h relative to area just after start of incubation) was ~39%. The “LDH release from platelets” value (washed platelets [6]) was “did not result in significant releases of LDH”, the “cytotoxicity to HDFa” value [1, 8] was “slight cytotoxicity effect” and the “cytotoxicity to HEK-293” value [3, 8] was “slight cytotoxicity effect”. The “effect on platelet aggregation” value (washed platelets [4]) was “do not affect platelet aggregation”.
